Laboratory results: PMC9995496, “A screen for MeCP2-TBL1 interaction inhibitors using a luminescence-based assay” (Scientific Reports, 2023)
Structures can show the parent of a compound that is named as a salt.

Each compound was assayed on PRKACA-PRKAR2A interaction (SmBiT-PRKACA / LgBiT-PRKAR2A), protein kinase A. Settings: counter-screen for NanoLuc interference, 0.5 h, 20 µM, inhibitor, Inh (PKA).
Parameters: NanoLuc complementation counter-screen in cell extract, PRKACA with PRKAR2A, loss of luminescence, detects NanoLuc interference

Inh (PKA)	Compound
17.98%	Cc1cc(Nc2cc(N3CCN(C)CC3)nc(/C=C/c3ccccc3)n2)n[nH]1 [UM0141724:01, ENMD-2076 L-(+)-Tartaric acid]
15.95%	Cc1cc(Nc2cc(N3CCN(C)CC3)nc(/C=C/c3ccccc3)n2)n[nH]1 [UM0141725:01, ENMD-2076]
-4.37%	C[C@@H]1CCN(C(=O)CC#N)C[C@@H]1N(C)c1ncnc2[nH]ccc12 [UM0141728:01, Tofacitinib (CP-690550) Citrate]
4.187%	CCCc1nn(C)c2c(=O)[nH]c(-c3cc(S(=O)(=O)N4CCN(C)CC4)ccc3OCC)nc12 [UM0141781:01, Sildenafil Citrate]

Same assay, conditions: counter-screen for NanoLuc interference; 0.5 h, 20 µM; inhibitor

Inh (PKA)	Compound
76.32%	CN(C)c1ccc(-c2nc3ncc(Cl)c(N4CCN(CC(=O)Nc5nccs5)CC4)c3[nH]2)cc1 [UM0141726:01, CCT129202]
46.74%	Cc1cc(CN2CCN(c3c(Br)cnc4nc(-c5ccc(N6CCN(C)CC6)cc5)[nH]c34)CC2)no1 [UM0141727:01, CCT137690]
28.21%	C[C@H](NC(=O)/C(C#N)=C/c1cccc(Br)n1)c1ccccc1 [UM0141729:01, WP1066]
36.26%	Cc1cnc(Nc2ccc(N3CCN(C)CC3)cc2)nc1Nc1cccc(S(=O)(=O)NC(C)(C)C)c1 [UM0141731:01, TG101209]
32.81%	CN1CCN(c2cccc(Nc3nc4c(-c5ccc(S(C)(=O)=O)cc5)cccn4n3)c2)CC1 [UM0141732:01, CEP-33779]
4.215%	CCn1c(C(=O)N(C2CC2)C2CC2)cc2c3c(ncn3C)c(Nc3cc(C)n(C)n3)nc21 [UM0141734:01, BMS-911543]
5.771%	Cn1ncnc1[C@H]1c2n[nH]c(=O)c3cc(F)cc(c23)N[C@@H]1c1ccc(F)cc1 [UM0141735:01, BMN 673]
1.39%	NC(=O)c1ccc(I)c([N+](=O)[O-])c1 [UM0141736:01, Iniparib (BSI-201)]
2.033%	CN(C)Cc1ccc(-c2nc3cccc4c3n2CCNC4=O)cc1 [UM0141737:01, AG-14361]
3.156%	CN(C)CC(=O)Nc1ccc2[nH]c(=O)c3ccccc3c2c1 [UM0141738:01, PJ34 hydrochloride]
5.639%	NC(=O)c1cccc2[nH]c(-c3ccc([C@@H]4CCCN4)cc3F)nc12 [UM0141739:01, A-966492]
15.76%	O=C(COc1cccc2c(=O)[nH]ccc12)c1ccccc1 [UM0141740:01, UPF 1069]
1.514%	COC1CCN(C(=O)c2cc(Cc3n[nH]c(=O)c4ccccc34)ccc2F)CC1 [UM0141741:01, AZD2461]
3.83%	CC(C)N(CCCNC(=O)Nc1ccc(C(C)(C)C)cc1)C[C@H]1O[C@@H](n2cc(Br)c3c(N)ncnc32)[C@H](O)[C@@H]1O [UM0141743:01, SGC 0946]
34.9%	CCN(CC)C(=O)/C(C#N)=C/c1cc(O)c(O)c([N+](=O)[O-])c1 [UM0141744:01, Entacapone]
1.222%	CC(C)N(CCCNC(=O)Nc1ccc(C(C)(C)C)cc1)C[C@H]1O[C@@H](n2ccc3c(N)ncnc32)[C@H](O)[C@@H]1O [UM0141745:01, EPZ004777]
11.88%	Cc1cc(C)c(CNC(=O)c2cc(-c3ccc(CN4CCOCC4)cc3)cc3c2cnn3C2CCCC2)c(=O)[nH]1 [UM0141746:01, EPZ005687]
3.135%	Nc1nc2[nH]cnc2c(=S)[nH]1 [UM0141747:01, Thioguanine]
11.59%	CC(NC(=O)c1ccccc1/N=C/c1c(O)ccc2ccccc12)c1ccccc1 (centres unmarked) [UM0141749:01, Sirtinol]
3.719%	COc1ccccc1S(=O)(=O)Nc1ccc2c(c1)CN(C)C(=O)N2 [UM0141750:01, PFI-1 (PF-6405761)]

Inh (PKA)	Compound
9.043%	CCOC(=O)Nc1cc(-c2ccc(C)c(NS(C)(=O)=O)c2)nn2c(C)nnc12 [UM0141751:01, Bromosporine]
9.511%	Cc1nc(C(=O)NCC(=O)O)c(O)c2ccc(Oc3ccccc3)cc12 [UM0141752:01, FG-4592 (ASP1517)]
11.33%	CCOC(=O)CCNc1cc(N2CCc3ccccc3CC2)nc(-c2ccccn2)n1 [UM0141754:01, GSK J4 HCl]
1.8%	O=C(O)CCNc1cc(N2CCc3ccccc3CC2)nc(-c2ccccn2)n1 [UM0141755:01, GSK J1]
32.18%	CN1CCC(CNc2ccc3ncc(-c4cccc(OC(F)(F)F)c4)n3n2)CC1 [UM0141756:01, SGI-1776 free base]
63.38%	O=C1NC(=O)/C(=C/c2cccc(C(F)(F)F)c2)S1 [UM0141757:01, SMI-4a]
43.77%	COC1=CC(c2cc3ccccc3[nH]2)=N/C1=C\c1[nH]c(C)cc1C [UM0141758:01, Obatoclax mesylate (GX15-070)]
12.84%	Cc1cc2c(C(=O)NC[C@H](C)c3ccccc3)c(O)c(O)cc2c(O)c1-c1c(C)cc2c(C(=O)NC[C@H](C)c3ccccc3)c(O)c(O)cc2c1O [UM0141759:01, Sabutoclax]
10.18%	OCc1ccc(-c2ccc(-c3ccc(CO)s3)o2)s1 [UM0141761:01, RITA (NSC 652287)]
3.72%	C/C(=N\NC(=S)N1CCC1)c1ccccn1 [UM0141763:01, NSC 319726]
2.798%	Nc1cccc2c1C(=O)N(C1CCC(=O)NC1=O)C2=O (centres unmarked) [UM0141764:01, Pomalidomide (CC-4047)]
5.445%	CN1C(=O)C(Cc2c[nH]c3ccccc23)NC1=S (centres unmarked) [UM0141765:01, Necrostatin-1]
-0.2984%	O=C1CCC(N2C(=O)c3ccccc3C2=O)C(=O)N1 (centres unmarked) [UM0141766:01, Thalidomide]
0.9715%	COCC[n+]1c2c(n(Cc3cnccn3)c1C)C(=O)c1ccccc1C2=O [UM0141767:01, YM155]
1.968%	COc1ccc(C2=N[C@@H](c3ccc(Cl)cc3)[C@@H](c3ccc(Cl)cc3)N2C(=O)N2CCNC(=O)C2)c(OC(C)C)c1 [UM0141768:01, Nutlin-3]
2.732%	CC(C)c1ccccc1Cc1cc(C(=O)Nc2ccc(S(=O)(=O)c3ccccc3C(C)(C)C)cc2)c(O)c(O)c1O [UM0141770:01, TW-37]
7.726%	S=C(NCc1ccc2c(c1)OCO2)N1CCN(c2ncnc3c2oc2ccccc23)CC1 [UM0141771:01, Amuvatinib (MP-470, HPK 56)]
5.429%	C[C@]12CC[C@H](O)CC1=CC[C@@H]1[C@@H]2CC[C@]2(C)C(c3cccnc3)=CC[C@@H]12 [UM0141772:01, Abiraterone]
6.091%	O=C(Nc1ccncc1)c1cc([N+](=O)[O-])ccc1Cl [UM0141773:01, T0070907]
22.49%	Cc1cccc(Nc2cc(Cl)nc(SCC(=O)O)n2)c1C [UM0141774:01, WY-14643 (Pirinixic Acid)]

Inh (PKA)	Compound
4.362%	CC(C)c1nc(CN(C)C(=O)N[C@@H](CCN2CCOCC2)C(=O)N[C@H](CC[C@H](Cc2ccccc2)NC(=O)OCc2cncs2)Cc2ccccc2)cs1 [UM0141776:01, Cobicistat (GS-9350)]
1.324%	CCOc1cc([C@@H](CS(C)(=O)=O)N2C(=O)c3cccc(NC(C)=O)c3C2=O)ccc1OC [UM0141777:01, Apremilast (CC-10004)]
69.24%	CC(C)c1cc(C(C)C)c(CC(=O)NS(=O)(=O)Oc2c(C(C)C)cccc2C(C)C)c(C(C)C)c1 [UM0141778:01, Avasimibe]
21.52%	O=C(Nc1c(Cl)cncc1Cl)c1ccc(OC(F)F)c(OCC2CC2)c1 [UM0141779:01, Roflumilast]
0.951%	C[C@@H](c1ncncc1F)[C@](O)(Cn1cncn1)c1ccc(F)cc1F [UM0141780:01, Voriconazole]
3.783%	CCCc1nc(C)c2c(O)nc(-c3cc(S(=O)(=O)N4CCN(CC)CC4)ccc3OCC)nn12 [UM0141782:01, Vardenafil HCl Trihydrate]
13.53%	CCc1ccc(CCOc2ccc(CC3SC(=O)NC3=O)cc2)nc1 (centres unmarked) [UM0141783:01, Pioglitazone HCl]
39.54%	Cn1cc(-c2ccncc2)c(-c2ccc(OCc3ccc4ccccc4n3)cc2)n1 [UM0141784:01, PF-2545920]
0.0216%	CNC(=O)c1ccc2cc([C@@]3(O)CCn4cncc43)ccc2c1 [UM0141785:01, TAK-700 (Orteronel)]
-0.06153%	COc1ccc(C2CNC(=O)C2)cc1OC1CCCC1 (centres unmarked) [UM0141786:01, Rolipram]
3.135%	COc1ccc([C@H]2CNC(=O)C2)cc1OC1CCCC1 [UM0141786:02, S- (+)-Rolipram]
0.1397%	COc1ccc([C@]2(C#N)CC[C@@H](C(=O)O)CC2)cc1OC1CCCC1 [UM0141787:01, Cilomilast]
11.7%	COc1cccc(Nc2c(C(N)=O)cnc3c(C)cc(S(=O)(=O)c4cccc(C(=O)N(C)C)c4)cc23)c1 [UM0141788:01, GSK256066]
5.542%	NCc1c[nH]c(=S)n1[C@H]1CCc2c(F)cc(F)cc2C1 [UM0141789:01, Nepicastat (SYN-117) HCl]
31.69%	O=C(O)CCCCC(CCSCc1ccccc1)SCc1ccccc1 (centres unmarked) [UM0141790:01, CPI-613]
18.48%	COc1ccc(CNc2nc(N3CCC[C@H]3CO)ncc2C(=O)NCc2ncccn2)cc1Cl [UM0141791:01, Avanafil]
3.705%	COc1c(C)c2c(c(O)c1C/C=C(\C)CCC(=O)OCCN1CCOCC1)C(=O)OC2 [UM0141793:01, Mycophenolate Mofetil]
3.84%	O=C(NC[C@H]1CN(c2ccc(N3CCOCC3=O)cc2)C(=O)O1)c1ccc(Cl)s1 [UM0141794:01, Rivaroxaban]
4.354%	Cc1ccccc1C(C(=O)NC1CCCCC1)N(C(=O)Cn1ccnc1C)c1cccc(F)c1 (centres unmarked) [UM0141795:01, AGI-5198]

Compound	Inh (PKA)
O=C(O)CNC(=O)c1c(O)c2ccccc2n(Cc2ccccc2)c1=O [UM0141753:01, IOX2(Glycine)]	18.92%
Cc1cc(SCc2sc(-c3ccc(C(F)(F)F)c(F)c3)nc2C)ccc1OCC(=O)O [UM0141775:01, GW0742]	20.87%
